According to publication PMC7767178 (International Journal of Molecular Sciences, 2020):
Converted amounts (≈) assume the structure as drawn. Where two headings read alike, the source gives them in different places. Positions of bridges follow the written chain, without caps; N, C: chain ends. Residues, ends and D or L forms follow the SMILES beside them.

What was measured:
[1] = system: A. veronii ACCC61732 genomic DNA; assay: CD spectra of genomic DNA with peptides; type: binding; conditions: mass ratios 2.5 and 10.0, 10 min, room temperature
Procedure: CD spectra were performed to examine the secondary structure of genomic DNA from A. veronii ACCC61732 after incubation with peptides. […] The mixtures were loaded into a cuvette of 1.0-mm path length and scanned from 190 to 330 nm at 25 °C using a Pistar π-180 CD spectrometer (Applied Photophysics Ltd., Surry, UK).

Salmonella = conditions: range over the strains of Table 2
A. veronii ACCC61732 [2] = assay: Organ injury in peritonitis model, histology; type: in vivo, mice; conditions: peptides 5 μmol/kg, CIP 1 μmol/kg
Procedure: Livers, kidneys, spleens, and lungs were removed from mice at 24 h and five days post treatment to evaluate the organ injury. After washing with PBS, the organs were fixed in 4% paraform-aldehyde for 24 h at 4 °C, dehydrated by a graded series of ethanol (75‒95%), and infiltrated with xylene. The organs were then embedded in paraffin wax, sectioned, and stained with hematoxylin and eosin. Finally, the tissue samples were fixed and observed by the light microscope. The CIP-treated mice served as the positive control and the PBS group served as the negative control.

S. hyicus 437-2 = type: cell-based
A. veronii ACCC61732 [3] = assay: Mouse peritonitis model, bacterial translocation to organs; type: in vivo, ICR mice; conditions: 5 μmol/kg, 24 h post-treatment, colony counting
Procedure: Sera and organs (livers, kidneys, spleens, and lungs) were collected from the mice at 24 h post-treatment. The organs were homogenized in sterile PBS to evaluate bacterial translocation by colony counting. The levels of cytokines (TNF-α, IL-1β, IL-6, and IL-10) in sera were detected using the ELISA kits.

trypsin = conditions: for MIC after trypsin treatment: pH 8
[4] = system: Pseudomonas aeruginosa and Gram-positive bacteria such as Staphylococcus aureus and S. hyicus; assay: MIC, range over strains; type: cell-based; conditions: range over the strains of Table 2
Text: All experiments were repeated three times.

[5] = 37 °C
[6] = 60 min, 200 μg/mL peptide, 37 °C, inhibition zone against A. veronii ACCC61732
Procedure: Briefly, a final concentration of 200 μg/mL peptide was incubated in SGF and SIF at 37 °C. At different time intervals, an aliquot of 20 μL mixture was taken and the activity of peptides was tested against A. veronii ACCC61732 by the inhibition zone assay. […] in PBS was used as the positive control; SGF and SIF were used as negative controls.

A. veronii ACCC61732 [7] = type: physicochemical; conditions: MIC against A. veronii ACCC61732; for MIC after treatment at 4 °C: 1 h at 4 °C; for MIC after treatment at 20 °C: 1 h at 20 °C; for MIC after treatment at 40 °C: 1 h at 40 °C; for MIC after treatment at 60 °C: 1 h at 60 °C; for MIC after treatment at 80 °C: 1 h at 80 °C
Procedure: The thermal stability of peptides was determined after treatment for 1 h at different temperatures (4, 20, 40, 60, 80, and 100 °C). The relative antibacterial activity of peptides against A. veronii ACCC61732 was determined by the MIC assay.

A. veronii ACCC61732 [8] = conditions: 3 h, MIC against A. veronii ACCC61732; for MIC after physiological salt 50 mM: NaCl 50 mM; for MIC after physiological salt 100 mM: NaCl 100 mM
Procedure: Similarly, salt stability of peptides was determined after a 3 h-incubation in different NaCl solutions (50, 100, 200, 300, 400, and 500 mM). […] The activity of peptides against A. veronii ACCC61732 was determined as described above. The untreated peptides were used as the positive control and buffers alone were used as the negative control. All assays were conducted in triplicate.

pepsin = conditions: pH 2
RAW 264.7 cells = assay: Cytotoxicity, MTT; type: cell-based; conditions: 24 h
Procedure: To determine the cytotoxicity of peptides, RAW 264.7 cells (2.5 × 10^4 cells/well) were seeded into 96-well plates and incubated for 24 h. […] The cells were dyed with 3-(4,5-dimethyl-2-thiazolyl)-2,5-diphenyl-2-H-tetrazolium bromide (MTT) (5 mg/mL) for 4 h, incubated with dimethyl sulfoxide (DMSO), and measured at 570 nm. PBS was used as controls. The cell survival rate was calculated by the equation: Survival rate (%) = (Abspeptide/AbsPBS) × 100 [25].

A. veronii ACCC61732 [9] = assay: pH stability, MIC read-out; type: physicochemical; conditions: MIC against A. veronii ACCC61732; for MIC after treatment at pH 10: glycine-NaOH buffer pH 10.0, 3 h; for MIC after treatment at pH 6: sodium phosphate buffer pH 6.0, 3 h; for MIC after treatment at pH 8: tris-HCl buffer pH 8.0, 3 h
Procedure: To evaluate pH stability, peptides were dissolved in glycine-HCl buffer (pH 2.0), sodium acetate buffer (pH 4.0), sodium phosphate buffer (pH 6.0), tris-HCl buffer (pH 8.0), or glycine-NaOH buffer (pH 10.0) and treated for 3 h. The MIC values of peptides against A. veronii ACCC61732 were measured as described above.

[10] = S. hyicus 437-2 (clinical isolate, pig farm), broth dilution, 37 °C, 16–18 h, three experiments

Row | Structure (SMILES) | effect on CD spectrum of genomic DNA [1] | MIC values against Salmonella (Salmonella) [µM] | effect on injury of liver, spleen, kidney and lung (A. veronii ACCC61732 [2]) | MIC (S. hyicus 437-2; [10]) [µg/mL] | reduction of bacteria in kidneys (A. veronii ACCC61732 [3]) [%] | reduction of bacteria in livers (A. veronii ACCC61732 [3]) [%] | reduction of bacteria in lungs (A. veronii ACCC61732 [3]) [%] | reduction of bacteria in spleens (A. veronii ACCC61732 [3]) [%] | MIC after trypsin treatment (trypsin) | MIC after treatment at 4 °C (A. veronii ACCC61732 [7]) [µg/mL] | MIC after treatment at 20 °C (A. veronii ACCC61732 [7]) [µg/mL] | MIC after treatment at 40 °C (A. veronii ACCC61732 [7]) [µg/mL] | MIC after treatment at 60 °C (A. veronii ACCC61732 [7]) [µg/mL] | MIC after treatment at 80 °C (A. veronii ACCC61732 [7]) [µg/mL] | MIC after physiological salt 50 mM (A. veronii ACCC61732 [8]) [μg/mL] | MIC after physiological salt 100 mM (A. veronii ACCC61732 [8]) [μg/mL] | MIC (S. hyicus 437-2) [µM] | MIC after treatment at pH 10 (A. veronii ACCC61732 [9]) [μg/mL] | MIC after treatment at pH 6 (A. veronii ACCC61732 [9]) [μg/mL] | MIC after treatment at pH 8 (A. veronii ACCC61732 [9]) [μg/mL] | also measured
1 | CC(C)[C@@H]1NC(=O)CNC(=O)[C@H](CC(N)=O)NC(=O)[C@H](CCCNC(=N)N)NC(=O)[C@H](Cc2ccc(O)cc2)NC(=O)[C@H](C(C)C)NC(=O)[C@@H](NC(=O)[C@@H](NC(=O)[C@H](CC(N)=O)NC(=O)[C@H](Cc2c[nH]c3ccccc23)NC(=O)[C@H](C)NC(=O)[C@H](Cc2ccccc2)NC(=O)CN)C(C)C)CSSC[C@@H](C(=O)N[C@@H](Cc2c[nH]cn2)C(=O)N[C@@H](CCCNC(=N)N)C(=O)N2CCC[C@H]2C(=O)N[C@@H](C)C(=O)N[C@@H](CC(N)=O)C(N)=O)NC(=O)[C@H](C(C)C)NC(=O)[C@H](CCCNC(=N)N)NC1=O [N6PNH2] (H-GFAWNVCVYRNGVRVCHRPAN-NH2; disulfide 7-16 (inferred)) | do not affect the double helix of genomic DNA | 0.83 to 13.25 | worst therapeutic effect | >64 | 18.36 | 31.54 | 15.92 | 28.47 | lost their activity | – | – | – | – | – | – | – | – | – | – | – | –
2 | CC(C)[C@H]1NC(=O)CNC(=O)[C@@H](CC(N)=O)NC(=O)[C@@H](CCCNC(=N)N)NC(=O)[C@@H](Cc2ccc(O)cc2)NC(=O)[C@@H](C(C)C)NC(=O)[C@H](NC(=O)[C@H](NC(=O)[C@@H](CC(N)=O)NC(=O)[C@@H](Cc2c[nH]c3ccccc23)NC(=O)[C@@H](C)NC(=O)[C@@H](Cc2ccccc2)NC(=O)CN)C(C)C)CSSC[C@H](C(=O)N[C@H](Cc2c[nH]cn2)C(=O)N[C@H](CCCNC(=N)N)C(=O)N[C@H](CCCNC(=N)N)C(=O)N[C@H](C)C(=O)N[C@H](CC(N)=O)C(N)=O)NC(=O)[C@@H](C(C)C)NC(=O)[C@@H](CCCNC(=N)N)NC1=O [DN6NH2] | elliptic intensity of the positive band declined | 0.81 to 6.46 | remarkably alleviated the injury of the liver and spleen | 8 | 80.10 | 89.65 | 81.61 | 70.38 | – | 4 (≈ 1.62 µM) | 4 (≈ 1.62 µM) | 4 (≈ 1.62 µM) | 4 (≈ 1.62 µM) | 4 (≈ 1.62 µM) | 4 | 4 | 3.23 | 4 | 4 | 4 | MICs against Pseudomonas aeruginosa and Gram-positive bacteria such as S. aureus and S. hyicus [4]: 1.62 to 6.46 µM; activity retained in SIF ([5]; 200 μg/mL peptide, inhibition zone against A. veronii ACCC61732): 100%; state after incubation in SIF ([5]; 1 h): remained intact; antibacterial activity after treatment in SGF [6]: higher antibacterial activity than N6NH2 and other analogs; MIC after physiological salt 200 mM (A. veronii ACCC61732 [8]; NaCl 200 mM): 4 μg/mL; MIC after physiological salt 300 mM (A. veronii ACCC61732 [8]; NaCl 300 mM): 4 μg/mL; MIC after physiological salt 400 mM (A. veronii ACCC61732 [8]; NaCl 400 mM): 4 μg/mL; MIC after physiological salt 500 mM (A. veronii ACCC61732 [8]; NaCl 500 mM): 4 μg/mL; MIC after pepsin treatment (pepsin): retained the antibacterial activity; cell survival rate at low concentrations (RAW 264.7 cells): over 100%; structure after trypsin treatment, MS analysis (trypsin): not affected by trypsin
3 | CC(C)[C@H](N)C(=O)N[C@@H](Cc1ccccc1)C(=O)N[C@@H](C)C(=O)N[C@@H](Cc1c[nH]c2ccccc12)C(=O)N[C@@H](CC(N)=O)C(=O)N[C@H](C(=O)N[C@H]1CSSC[C@@H](C(=O)N[C@@H](Cc2c[nH]cn2)C(=O)N[C@@H](CCCNC(=N)N)C(=O)N[C@@H](CCCNC(=N)N)C(=O)N[C@@H](C)C(=O)N[C@@H](CC(N)=O)C(N)=O)NC(=O)[C@H](C(C)C)NC(=O)[C@H](CCCNC(=N)N)NC(=O)[C@H](C(C)C)NC(=O)[C@H](C(C)C)NC(=O)[C@H](CC(N)=O)NC(=O)[C@H](CCCNC(=N)N)NC(=O)[C@H](Cc2ccc(O)cc2)NC(=O)[C@H](C(C)C)NC1=O)C(C)C [V112N6NH2] (H-VFAWNVCVYRNVVRVCHRRAN-NH2; disulfide 7-16 (inferred)) | do not affect the double helix of genomic DNA | 0.78 to 6.25 | significantly less damaged | 32 | 63.42 | 52.71 | 83.57 | 63.87 | lost their activity | – | – | – | – | – | – | – | 12.5 | – | – | – | –
4 | CC(C)[C@@H]1NC(=O)CNC(=O)[C@H](CC(N)=O)NC(=O)[C@H](CCCNC(=N)N)NC(=O)[C@H](Cc2ccc(O)cc2)NC(=O)[C@H](C(C)C)NC(=O)[C@@H](NC(=O)[C@@H](NC(=O)[C@H](CC(N)=O)NC(=O)[C@H](Cc2c[nH]c3ccccc23)NC(=O)[C@H](C)NC(=O)[C@H](Cc2ccccc2)NC(=O)CN)C(C)C)CSSC[C@@H](C(=O)N[C@@H](Cc2cnc[nH]2)C(=O)N[C@@H](CCCNC(=N)N)C(=O)N[C@@H](CCCNC(=N)N)C(=O)N[C@@H](C)C(=O)N[C@@H](CC(N)=O)C(N)=O)NC(=O)[C@H](C(C)C)NC(=O)[C@H](CCCNC(=N)N)NC1=O [N6NH2] | do not affect the double helix of genomic DNA | – | remarkably alleviated the injury of the liver and spleen | 32 | 80.52 | 72.94 | 71.89 | 77.86 | – | 4 (≈ 1.62 µM) | 4 (≈ 1.62 µM) | 4 (≈ 1.62 µM) | 4 (≈ 1.62 µM) | 4 (≈ 1.62 µM) | 4 | 4 | 12.9 | 4 | 4 | 4 | MIC after treatment at pH 2 (A. veronii ACCC61732 [9]; glycine-HCl buffer pH 2.0, 3 h): 4 μg/mL; MIC after treatment at pH 4 (A. veronii ACCC61732 [9]; sodium acetate buffer pH 4.0, 3 h): 4 μg/mL
